Earlier results on one molecule are cited in patent publication US20220387454A1, “NUTRITIONAL COMPOSITION FOR VISUAL FUNCTION” (OMNIACTIVE HEALTH TECHNOLOGIES LIMITED, priority 2019, published 2022).

For the series, the system named is patients with dry eye syndrome (DES) refractory to conventional treatment with vitamin D deficiency. The following applies: intramuscular 200,000 IU, p<0.05.

As for `C=C1CC[C@H](O)C/C1=C/C=C1\CCC[C@]2(C)[C@@H]([C@H](C)CCCC(C)C)CC[C@@H]12` [cholecalciferol], under “2, 6, and 10 weeks”, the Eyelid margin hyperemia result was “showed improvement” and the Severity of symptoms result is recorded as “showed improvement”. In addition, under “2 and 6 weeks vs pre-treatment”, the “Tear break-up time (TBUT)” value is given as “showed an improvement” and the Tear secretion test entry is listed as “showed an improvement”. For the setting “2 weeks vs pre-treatment”, the “Fluorescein staining score (FSS)” value is on record as “decreased”, the “Ocular surface disease index (OSDI)” value is reported as “decreased” and the “Visual analogue pain score (VAS)” value is “decreased”.
